Measured values from PMC11258351, “PK/PD investigation of antiviral host matriptase/TMPRSS2 inhibitors in cell models” (Scientific Reports, 2024).
Entries after “also recorded” stand apart in the source; their conditions may differ.

What was measured:
CYP2C9 = CYP2C9 (Homo sapiens, UniProt P11712); assay: Fluorometric CYP2C9 activity assay in human hepatic microsomes; conditions: human liver microsomes, protease inhibitors at 50 µM, 15 min 37 °C
[1] = Prediction of in vivo human PK parameters from hepatocyte clearance; type: in vitro ADME; conditions: for Classification (extraction type) / Extraction ratio EH: predicted; for Predicted Cl, CLH: predicted from hepatocyte Clint, fu = 1
α-1 acidic glycoprotein = test system: α-1 acidic glycoprotein; set-up: method as in PMID 37865989; conditions: cited from earlier work
CYP2C19 = CYP2C19 (Homo sapiens, UniProt P33261); assay: Fluorometric CYP2C19 activity assay in human hepatic microsomes; conditions: human liver microsomes, protease inhibitors at 50 µM, 15 min 37 °C
Chain of CYP2C19 (P33261 whole entry): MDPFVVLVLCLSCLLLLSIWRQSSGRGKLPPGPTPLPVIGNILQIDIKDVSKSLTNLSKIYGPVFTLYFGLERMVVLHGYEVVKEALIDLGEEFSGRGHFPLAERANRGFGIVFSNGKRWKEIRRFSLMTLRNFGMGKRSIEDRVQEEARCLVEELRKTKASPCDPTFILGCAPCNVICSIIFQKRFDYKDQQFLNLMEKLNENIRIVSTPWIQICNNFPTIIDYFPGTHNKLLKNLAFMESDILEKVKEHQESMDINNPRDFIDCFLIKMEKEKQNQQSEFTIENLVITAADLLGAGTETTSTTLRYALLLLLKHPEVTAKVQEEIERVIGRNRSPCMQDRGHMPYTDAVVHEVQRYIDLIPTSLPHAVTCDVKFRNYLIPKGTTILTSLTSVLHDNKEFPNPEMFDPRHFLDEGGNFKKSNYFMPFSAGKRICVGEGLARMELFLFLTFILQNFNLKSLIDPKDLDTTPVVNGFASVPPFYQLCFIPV

[2] = test system: human primary hepatocytes; assay: Depletion of inhibitors in human primary hepatocyte suspension (LC-MS/MS); conditions: primary human hepatocytes, 10 µM; for Parent compound retained at the 120-min sampling point: % of 0-min concentration, mean ± S.E.M.; for Sampling interval at which significant depletion was first observed: sampling 0-120 min
[3] = as above; conditions: human, cryopreserved primary human hepatocytes in suspension; for CLint scaled at 10 µM: intrinsic clearance from primary human hepatocytes scaled to whole liver/body weight
CYP1A2 = molecular target: T1, CYP1A2 (Homo sapiens, UniProt P05177); assay: Fluorometric CYP1A2 activity assay in human hepatic microsomes; conditions: human liver microsomes, protease inhibitors at 50 µM, 15 min 37 °C
T1 sequence (P05177 1-516): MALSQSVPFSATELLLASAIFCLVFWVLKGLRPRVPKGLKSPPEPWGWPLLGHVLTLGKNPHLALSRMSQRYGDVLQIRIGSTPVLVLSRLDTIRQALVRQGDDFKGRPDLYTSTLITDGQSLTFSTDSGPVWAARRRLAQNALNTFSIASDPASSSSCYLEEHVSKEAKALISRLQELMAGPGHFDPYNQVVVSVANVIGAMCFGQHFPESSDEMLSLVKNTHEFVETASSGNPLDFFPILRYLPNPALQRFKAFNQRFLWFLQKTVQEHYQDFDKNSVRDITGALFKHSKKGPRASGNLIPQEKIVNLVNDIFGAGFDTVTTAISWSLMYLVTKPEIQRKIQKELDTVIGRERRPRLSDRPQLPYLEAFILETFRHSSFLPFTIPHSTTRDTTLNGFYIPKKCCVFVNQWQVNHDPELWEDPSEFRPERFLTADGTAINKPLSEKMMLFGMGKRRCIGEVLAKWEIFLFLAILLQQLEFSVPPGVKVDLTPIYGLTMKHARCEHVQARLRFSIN

CYP3A4 = CYP3A4 (Homo sapiens, UniProt P08684); assay: Fluorometric CYP3A4 activity assay in human hepatic microsomes; conditions: human liver microsomes, 10, 25 and 50 µM
Chain of CYP3A4 (P08684 whole entry): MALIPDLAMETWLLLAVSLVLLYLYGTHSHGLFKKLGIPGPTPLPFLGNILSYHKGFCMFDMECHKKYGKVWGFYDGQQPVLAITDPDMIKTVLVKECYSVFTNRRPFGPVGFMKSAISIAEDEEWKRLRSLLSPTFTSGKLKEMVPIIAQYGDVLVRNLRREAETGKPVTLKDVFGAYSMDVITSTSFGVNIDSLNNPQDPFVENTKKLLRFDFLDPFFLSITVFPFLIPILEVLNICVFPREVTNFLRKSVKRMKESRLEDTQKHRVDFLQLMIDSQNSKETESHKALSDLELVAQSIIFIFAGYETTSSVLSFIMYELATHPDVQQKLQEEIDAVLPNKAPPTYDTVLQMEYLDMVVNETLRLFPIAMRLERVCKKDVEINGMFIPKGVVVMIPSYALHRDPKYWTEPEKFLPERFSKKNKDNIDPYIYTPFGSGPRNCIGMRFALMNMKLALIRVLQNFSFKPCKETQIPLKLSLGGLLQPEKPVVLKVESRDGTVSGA

CYP2D6 = CYP2D6 (Homo sapiens, UniProt P10635); assay: Fluorometric CYP2D6 activity assay in human hepatic microsomes; conditions: human liver microsomes, protease inhibitors at 50 µM, 15 min 37 °C
Chain of CYP2D6 (P10635 whole entry): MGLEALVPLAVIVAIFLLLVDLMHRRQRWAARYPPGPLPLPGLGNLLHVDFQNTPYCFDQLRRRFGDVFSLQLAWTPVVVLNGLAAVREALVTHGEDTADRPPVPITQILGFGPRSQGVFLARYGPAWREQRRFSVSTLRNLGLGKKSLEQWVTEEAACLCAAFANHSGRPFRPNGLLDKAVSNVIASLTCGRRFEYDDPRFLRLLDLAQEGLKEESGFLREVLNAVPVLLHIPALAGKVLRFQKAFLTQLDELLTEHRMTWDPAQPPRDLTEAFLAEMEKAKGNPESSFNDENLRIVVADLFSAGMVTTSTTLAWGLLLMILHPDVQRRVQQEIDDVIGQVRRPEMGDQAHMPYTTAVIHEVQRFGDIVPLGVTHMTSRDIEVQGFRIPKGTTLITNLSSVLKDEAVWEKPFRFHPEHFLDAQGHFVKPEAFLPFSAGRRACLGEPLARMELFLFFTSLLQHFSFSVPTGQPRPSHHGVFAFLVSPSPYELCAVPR

[4] = test system: H9N2 IAV strain A/quail/Shantou/782/00; type: cell-based, influenza A virus; conditions: MDCK-II cells, MOI 0.01, 50 µM, 24 h
[5] = test system: cynomolgus monkey hepatocytes; set-up: method as in PMID 31391268; conditions: cited from earlier work
H1N1 IAV = test system: H1N1 IAV; set-up: method as in PMID 23527573; conditions: Calu-3 cells; cited from earlier work
Calu-3 cells = test system: Calu-3 cells; set-up: method as in PMID 32703818; conditions: 50 μM; cited from earlier work
SARS-CoV-2 = test system: SARS-CoV-2; set-up: method as in PMID 32703818; conditions: Calu-3 cells, 50 μM, 24 h p.i.; cited from earlier work
H3N2 IAV = test system: H3N2 IAV; set-up: method as in PMID 23527573; conditions: Calu-3 cells; cited from earlier work
[6] = test system: primary human hepatocytes; conditions: 50 μM; cited from earlier work
H1N1 PR8 = test system: H1N1 PR8; set-up: method as in PMID 23365447; conditions: Calu-3 cells; cited from earlier work

Chain of CYP2C9 (P11712 whole entry): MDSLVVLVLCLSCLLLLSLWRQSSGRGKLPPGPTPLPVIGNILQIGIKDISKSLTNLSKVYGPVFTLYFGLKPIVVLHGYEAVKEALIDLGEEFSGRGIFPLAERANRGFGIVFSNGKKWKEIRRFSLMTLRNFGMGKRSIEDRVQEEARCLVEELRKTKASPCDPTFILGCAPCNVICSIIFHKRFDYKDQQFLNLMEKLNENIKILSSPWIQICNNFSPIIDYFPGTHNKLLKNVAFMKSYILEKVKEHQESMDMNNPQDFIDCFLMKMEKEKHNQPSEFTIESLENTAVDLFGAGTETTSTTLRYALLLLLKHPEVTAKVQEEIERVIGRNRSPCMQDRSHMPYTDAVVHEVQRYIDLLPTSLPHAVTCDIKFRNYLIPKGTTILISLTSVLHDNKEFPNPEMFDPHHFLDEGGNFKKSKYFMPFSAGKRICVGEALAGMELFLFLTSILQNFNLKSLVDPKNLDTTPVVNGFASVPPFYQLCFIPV

SMILES | Inhibition of CYP2C9 activity (CYP2C9) | Classification (extraction type) [1] | Extraction ratio EH [1] | Predicted Cl, CLH [1] | Inhibition of CYP2C19 activity (CYP2C19) | Parent compound retained at the 120-min sampling point [2] [%] | Sampling interval at which significant depletion was first observed [2] [min] | half-life at 10 µM [3] [h] | CLint scaled at 10 µM [3] [mL/min/kg] | Inhibition of CYP1A2 activity (CYP1A2) | Effect on CYP3A4 enzyme activity (CYP3A4) | Inhibition of CYP2D6 activity (CYP2D6) | also measured
COc1ccc(-c2cccc(S(=O)(=O)N[C@@H](Cc3cccc(C(=N)N)c3)C(=O)N3CCC(N)CC3)c2)c(OC)c1 [MI-472] | No significant CYP inhibitory potential | Intermediate | 0.36 | 7.40 | No significant CYP inhibitory potential | 65.1 ± 5.5 | 30 | 3.84 | 19.8 | No significant CYP inhibitory potential | significant inhibitory effect | No significant CYP inhibitory potential | Interaction with α-1 acidic glycoprotein (α-1 acidic glycoprotein): complex formation; H9N2 viral spread / formation of viral foci [4]: only slightly reduced formation of viral foci; Treatment time after which significant conversion was seen [5]: 60 to 120 min
N=C(N)c1cccc(C[C@H](NS(=O)(=O)c2cccc(-c3ccc(Cl)cc3Cl)c2)C(=O)N2CCC(CCN)CC2)c1.O=C(O)C(F)(F)F.O=C(O)C(F)(F)F [MI-432, reference compound] |  |  |  |  |  |  |  |  |  |  |  |  | Inhibition of proteolytic activation and replication of H1N1 IAV (H1N1 IAV): notable efficacy; Influence on Calu-3 cell viability (Calu-3 cells): without influencing Calu-3 cell viabilitiy significantly; Reduction of SARS-CoV-2 viral titers compared to control samples (SARS-CoV-2): 75 fold; Inhibition of proteolytic activation and replication of H3N2 IAV (H3N2 IAV): notable efficacy
N=C(N)c1cccc(C[C@H](NS(=O)(=O)c2cccc(NC(=O)CCN)c2)C(=O)N2CCC(CCN)CC2)c1 [MI-21] | No significant CYP inhibitory potential | Intermediate | 0.53 | 10.92 | No significant CYP inhibitory potential | 16.6 ± 1.6 | 30 | 0.52 | 147 | No significant CYP inhibitory potential | did not cause significant reduction; also recorded: did not significantly suppress | No significant CYP inhibitory potential | Cell toxicity [6]: no cell toxicity; Inhibition of replication of H1N1 PR8 (H1N1 PR8): promising inhibition
